This note sets out measurements from patent publication US10508085B2, “Compounds and methods for IDO and TDO modulation, and indications therefor” (Plexxikon Inc., priority 2016, dated 2019).

Molecules are shown by their SMILES.

The target in assay [1] is T1, human TDO (TDO-expressing HEK293 cells) (Homo sapiens, UniProt P48775).
T1 construct: expressed in transfected cells
Description: Cell based kynurenine assay, TDO-expressing HEK293 cell clones. The following applies: TDO-expressing HEK293 cells, 24 hours incubation; geometric mean; read-out: HEK293 TDO Kynurenine GMean IC50 (μM) (Cellular Assay). In outline: (§1)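 IC50 values come from nonlinear regression of kynurenine reduction in supernatants of human IDO1- or TDO-expressing HEK293 cells incubated 24 h with serially diluted compounds, normalised to cell and media-only controls containing 0.2% DMSO.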

Assay [2] concerns the target T2, Human Indoleamine 2,3-dioxygenase (IDO) (Homo sapiens, UniProt P14902).
T2 construct: His tag (N); made in house; host or cells: E. coli
Description: Human IDO enzymatic assay (kynurenine level). It is filed as biochemical. The conditions noted are these: 6 nM IDO, 10 μM L-Trp; geometric mean; read-out: IDO1 GMean: IC50 (μM) (Biochemical Assay). In short, it runs like this:
(§2)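 Kynurenine formed is measured after TCA quench and 50 °C hydrolysis, with % inhibition against full-reaction and no-enzyme controls (5% DMSO). IDO: 6 nM enzyme, 10 μM L-Trp, 5 μM methylene blue, 20 min; TDO: 1 nM, 350 μM L-Trp, 0.4 μM methylene blue, 70 min; both pH 6.5, room temp, E. coli-expressed His-tagged.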

Assay [3] deals with T3, Human Tryptophan 2,3-dioxygenase (TDO) (Homo sapiens, UniProt P48775).
T3 construct: His tag (N); made in house; host or cells: E. coli
T3 sequence (P48775 whole entry): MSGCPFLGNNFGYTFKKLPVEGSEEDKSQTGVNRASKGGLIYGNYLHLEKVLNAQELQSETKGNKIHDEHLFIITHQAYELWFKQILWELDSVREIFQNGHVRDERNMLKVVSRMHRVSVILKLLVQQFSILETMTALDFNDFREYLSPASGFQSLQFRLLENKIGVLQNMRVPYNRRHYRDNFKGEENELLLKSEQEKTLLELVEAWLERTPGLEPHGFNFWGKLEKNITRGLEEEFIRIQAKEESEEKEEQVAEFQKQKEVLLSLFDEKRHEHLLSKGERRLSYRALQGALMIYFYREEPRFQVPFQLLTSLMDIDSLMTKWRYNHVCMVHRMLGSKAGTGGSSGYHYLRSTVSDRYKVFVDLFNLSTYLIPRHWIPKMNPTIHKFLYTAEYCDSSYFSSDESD
Description: Human TDO enzymatic assay (kynurenine level). In kind it is biochemical. The following applies: 1 nM TDO, 350 μM L-Trp; geometric mean; read-out: TDO GMean: IC50 (μM) (Biochemical Assay). In outline: as §2

Assay [4] deals with T4, human IDO (IDO1-expressing HEK293 cells) (Homo sapiens, UniProt P14902).
T4 construct: expressed in transfected cells
T4 sequence (P14902 whole entry): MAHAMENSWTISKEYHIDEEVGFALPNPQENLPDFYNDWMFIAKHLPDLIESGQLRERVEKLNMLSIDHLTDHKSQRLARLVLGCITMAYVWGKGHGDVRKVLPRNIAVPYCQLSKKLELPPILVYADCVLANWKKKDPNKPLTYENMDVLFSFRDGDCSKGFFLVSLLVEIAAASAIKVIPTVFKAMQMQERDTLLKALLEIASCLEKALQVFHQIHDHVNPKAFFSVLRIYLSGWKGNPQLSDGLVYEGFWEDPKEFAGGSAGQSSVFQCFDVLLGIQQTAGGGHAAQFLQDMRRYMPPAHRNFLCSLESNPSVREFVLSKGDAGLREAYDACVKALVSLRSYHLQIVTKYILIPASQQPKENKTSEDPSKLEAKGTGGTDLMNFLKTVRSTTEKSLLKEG
The experiment in a line: Cell based kynurenine assay, IDO1-expressing HEK293 cell clones. The conditions noted are these: IDO1-expressing HEK293 cells, 24 hours incubation; geometric mean; read-out: HEK293 IDO1 Kynurenine GMean IC50 (μM) (Cellular Assay). In short, it runs like this:
as §1

T1 sequence (P48775 whole entry): as the sequence (P48775 whole entry) above
T2 sequence (P14902 whole entry): as the sequence (P14902 whole entry) above

As for `CC(=O)N1CCC(C(F)(F)C(O)c2c(F)c(Cl)cc3cn[nH]c23)CC1` (stereo not drawn) [Compound P-0128, 1-(4-(2-(5-chloro-6-fluoro-1H-indazol-7-yl)-1,1-difluoro-2-hydroxyethyl)piperidin-1-yl)ethan-l-one], the IC50 in assay [1], in assay [2], in assay [3] and in assay [4] was 0.0001 to 10 µM each time.

Turning to `CC(=O)N1CCC(C(F)(F)C(O)c2c3c(cc4cn[nH]c24)CC3)CC1` (stereo not drawn) [Compound P-0129, 1-(4-(2-(5,6-dihydro-1H-cyclobuta[f]indazol-7-yl)-1,1-difluoro-2-hydroxyethyl)piperidin-1-yl)ethan-l-one], the concentration for half-maximal inhibition (IC50) in assay [1], in assay [2], in assay [3] and in assay [4] was 0.0001 to 10 µM each time.

For `CC(=O)N1CCC(C2(C(O)c3cc(Cl)cc4cn[nH]c34)CC2)CC1` (stereo not drawn) [Compound P-0130, 1-(4-(1-((5-chloro-1H-indazol-7-yl)(hydroxy)methyl)cyclopropyl)piperidin-1-yl)ethan-l-one], the IC50 in assay [1], in assay [2], in assay [3] and in assay [4] was 0.0001 to 10 µM throughout.

Regarding `CS(=O)(=O)N1C[C@H]2CC[C@@H](C1)[C@H]2C(F)(F)C(O)c1cc(Cl)cc2cn[nH]c12` (stereo partly drawn) [Compound P-0131, 1-(5-chloro-1H-indazol-7-yl)-2,2-difluoro-2-((1R,5S,8s)-3-(methylsulfonyl)-3-azabicyclo[3.2.l]octan-8-yl)ethan-l-ol], the 50% inhibitory concentration (IC50) in assay [1], in assay [2], in assay [3] and in assay [4] was 0.0001 to 10 µM throughout.

On to `CS(=O)(=O)N1C[C@H]2CC[C@@H](C1)[C@@H]2C(F)(F)C(O)c1cc(Cl)cc2cn[nH]c12` (stereo partly drawn) [Compound P-0132, 1-(5-chloro-1H-indazol-7-yl)-2,2-difluoro-2-((1R,5S,8r)-3-(methylsulfonyl)-3-azabicyclo[3.2.l]octan-8-yl)ethan-l-ol], for which the IC50 in assay [1], in assay [2], in assay [3] and in assay [4] was 0.0001 to 10 µM throughout.

As to `OC(c1cc(Cl)cc2cn[nH]c12)C12CCC(O)(CC1)CC2` (stereo not shown) [Compound P-0133, 4-((5-chloro-1H-indazol-7-yl)(hydroxy)methyl)bicyclo[2.2.2]octan-1-ol], the IC50 in assay [1], in assay [2], in assay [3] and in assay [4] was 0.0001 to 10 µM in each case.

Regarding `CNC(=O)N1CCC(C2(C(O)c3cc(Cl)cc4cn[nH]c34)CC2)CC1` (stereo not shown) [Compound P-0134, 4-(1-((5-chloro-1H-indazol-7-yl)(hydroxy)methyl)cyclopropyl)-N-methylpiperidine-1-carboxamide], the IC50 in assay [1], in assay [2], in assay [3] and in assay [4] was 0.0001 to 10 µM in each case.

As for `OC(c1cc(Cl)c(F)c2cn[nH]c12)C12CCC(CC1)CC2` (stereo not shown) [Compound P-0135, bicyclo[2.2.2]octan-1-yl(5-chloro-4-fluoro-1H-indazol-7-yl)methanol], the IC50 in assay [1], in assay [2], in assay [3] and in assay [4] was 0.0001 to 10 µM each time.

Take `COC12CCC(C(O)c3cc(Cl)cc4cn[nH]c34)(CC1)CC2` (stereo not shown) [Compound P-0136, (5-chloro-1H-indazol-7-yl)(4-methoxybicyclo[2.2.2]octan-1-yl)methanol]: the IC50 in assay [1], in assay [2], in assay [3] and in assay [4] was 0.0001 to 10 µM in each case.

Consider `COC12CCC(C(O)c3c(F)c(Cl)cc4cn[nH]c34)(CC1)CC2` (stereo not shown) [Compound P-0137, (5-chloro-6-fluoro-1H-indazol-7-yl)(4-methoxybicyclo[2.2.2]octan-1-yl)methanol], for which the IC50 in assay [1], in assay [2], in assay [3] and in assay [4] was 0.0001 to 10 µM throughout.

For `CC(=O)N1C[C@H]2CC[C@@H](C1)[C@H]2C(F)(F)C(O)c1c(F)c(Cl)cc2cn[nH]c12` (stereo partly drawn) [Compound P-0138, 1-((1R,5S,8s)-8-(2-(5-chloro-6-fluoro-1H-indazol-7-yl)-1,1-difluoro-2-hydroxyethyl)-3-azabicyclo[3.2.l]octan-3-yl)ethan-l-one], the IC50 in assay [1], in assay [2], in assay [3] and in assay [4] was 0.0001 to 10 µM each time.

`CC(=O)N1C[C@H]2CC[C@@H](C1)[C@@H]2C(F)(F)C(O)c1c(F)c(Cl)cc2cn[nH]c12` (stereo partly drawn) [Compound P-0139, 1-((1R,5S,8r)-8-(2-(5-chloro-6-fluoro-1H-indazol-7-yl)-1,1-difluoro-2-hydroxyethyl)-3-azabicyclo[3.2.l]octan-3-yl)ethan-l-one]: the concentration for half-maximal inhibition (IC50) in assay [1], in assay [2], in assay [3] and in assay [4] was 0.0001 to 10 µM in each case.

For the molecule `COC(=O)N1CCC(C(F)(F)C(O)c2cc(Cl)cc3cn[nH]c23)CC1` (stereo not shown) [Compound P-0141, methyl 4-(2-(5-chloro-1H-indazol-7-yl)-1,1-difluoro-2-hydroxyethyl)piperidine-1-carboxylate], the 50% inhibitory concentration (IC50) in assay [1], in assay [2], in assay [3] and in assay [4] was 0.0001 to 10 µM each time.

Take `CNC(=O)N1CCC(C(F)(F)C(O)c2cc(Cl)cc3cn[nH]c23)CC1` (stereo not shown) [Compound P-0142, 4-(2-(5-chloro-1H-indazol-7-yl)-1,1-difluoro-hydroxyethyl)-N-methylpiperidine-1-carboxamide]: the IC50 in assay [1], in assay [2], in assay [3] and in assay [4] was 0.0001 to 10 µM each time.

For the molecule `O=C(C1CC1)N1CCC(C(F)(F)C(O)c2cc(Cl)cc3cn[nH]c23)CC1` (stereo not shown) [Compound P-0143, (4-(2-(5-chloro-1H-indazol-7-yl)-1,1-difluoro-2-hydroxyethyl)piperidin-1-yl)(cyclopropyl)methanone], the half-inhibitory concentration (IC50) in assay [1], in assay [2], in assay [3] and in assay [4] was 0.0001 to 10 µM in each case.

With `NC(=O)N1CCC(C(F)(F)C(O)c2cc(Cl)cc3cn[nH]c23)CC1` (stereo not shown) [Compound P-0144, 4-(2-(5-chloro-1H-indazol-7-yl)-1,1-difluoro-2-hydroxyethyl)piperidine-1-carboxamide], the half-inhibitory concentration (IC50) in assay [1], in assay [2], in assay [3] and in assay [4] was 0.0001 to 10 µM each time.

Consider `CC1(C(O)c2cc(Cl)cc3[nH]ncc23)CCCCC1` (stereo not shown) [Compound P-0145, (6-chloro-1H-indazol-4-yl)(1-methylcyclohexyl)methanol], for which the IC50 (commonly the concentration at which inhibition is half-maximal) in assay [1] is 0.0001 to 10 µM; in assay [2] it was 0.0001 to 10 µM; in assay [3], 0.0001 to 10 µM; in assay [4] it was > 10 µM.

Take `OC(c1cc(Cl)cc2[nH]ncc12)C12CCC(CC1)CC2` (stereo not shown) [Compound P-0146, bicyclo[2.2.2]octan-1-yl(6-chloro-1H-indazol-4-yl)methanol]: the IC50 in assay [1] is 0.0001 to 10 µM; in assay [2], 0.0001 to 10 µM; in assay [3], 0.0001 to 10 µM; in assay [4], > 10 µM.

With `CCC(=O)N1CCC(C(F)(F)C(O)c2cc(Cl)cc3cn[nH]c23)CC1` (stereo not drawn) [Compound P-0147, 1-(4-(2-(5-chloro-1H-indazol-7-yl)-1,1-difluoro-2-hydroxyethyl)piperidin-1-yl)propan-l-one], the IC50 in assay [1], in assay [2], in assay [3] and in assay [4] was 0.0001 to 10 µM each time.

`CC(C)CC(=O)N1CCC(C(F)(F)C(O)c2cc(Cl)cc3cn[nH]c23)CC1` (stereo not drawn) [Compound P-0148, 1-(4-(2-(5-chloro-1H-indazol-7-yl)-1,1-difluoro-2-hydroxyethyl)piperidin-l-yl)-3-methylbutan-1-one]: the 50% inhibitory concentration (IC50) in assay [1], in assay [2], in assay [3] and in assay [4] was 0.0001 to 10 µM throughout.

With `O=C(CC1CC1)N1CCC(C(F)(F)C(O)c2cc(Cl)cc3cn[nH]c23)CC1` (stereo not drawn) [Compound P-0149, 1-(4-(2-(5-chloro-1H-indazol-7-yl)-1,1-difluoro-2-hydroxyethyl)piperidin-l-yl)-2-cyclopropylethan-1-one], the concentration for half-maximal inhibition (IC50) in assay [1], in assay [2], in assay [3] and in assay [4] was 0.0001 to 10 µM in each case.

On to `O=C(Nc1ccccc1)N1CCC(C(F)(F)C(O)c2cc(Cl)cc3cn[nH]c23)CC1` (stereo not shown) [Compound P-0150, 4-(2-(5-chloro-1H-indazol-7-yl)-1,1-difluoro-2-hydroxyethyl)-N-phenylpiperidine-1-carboxamide], for which the IC50 in assay [1], in assay [2], in assay [3] and in assay [4] was 0.0001 to 10 µM throughout.
